# Source: patent US6677354B2, “Piperdines for use as orexin receptor antagonists” (SmithKline Beecham p.l.c., priority 2000, dated 2004)
# Experiments:
# orexin receptors = assay: Rat sleep/EEG studies after central administration; assay type: in vivo; conditions: central administration at the onset of the normal sleep period
# Text: Therefore antagonists of its receptor may be useful in the treatment of sleep disorders including insomnia.
# [1] = test system: food intake in freely-feeding rats; conditions: central administration, 4 hour time period; cited from earlier work
substance,measurement,setting,value
"orexin-A: ""orexin-A, an agonist of the orexin receptors""; ""Human orexin-A has the amino acid sequence: pyroGlu Pro Leu Pro Asp Cys Cys Arg Gln Lys Thr Cys...""",effect on arousal and sleep,orexin receptors,dose-related increase in arousal
same,increase in food intake over control rats receiving vehicle,[1],approximately four-fold
